Laboratory results as given in patent publication US12398154B2, “Azaquinazoline pan-KRas inhibitors” (Mirati Therapeutics, Inc., priority 2020, dated 2025).

Assays:
Test in all cases: biochemical
KRas G12V = KRas G12V (Homo sapiens, UniProt P01116, G12V);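 note: KRas binding measured by TR-FRET displacement at room temperature, IC50 fitted from percent of control values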
Method: (§1) The ability of a compound to bind to KRas was measured using a TR-FRET displacement assay. […] After a 60-minute incubation at room temperature, the reaction was measured using a BMG LABTECH CLARIO star Plus via TR-FRET. […] The POC values were fit to a 4-parameter IC50 equation and the IC50 value reported.

KRas G12D = KRas G12D (Homo sapiens, UniProt P01116, G12D);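 note: TR-FRET displacement binding assay on KRas, read after a one-hour incubation at room temperature, IC50 fitted from percent-of-control values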
Sequence of KRas G12D (P01116 1-169 isoform P01116-2 G12D): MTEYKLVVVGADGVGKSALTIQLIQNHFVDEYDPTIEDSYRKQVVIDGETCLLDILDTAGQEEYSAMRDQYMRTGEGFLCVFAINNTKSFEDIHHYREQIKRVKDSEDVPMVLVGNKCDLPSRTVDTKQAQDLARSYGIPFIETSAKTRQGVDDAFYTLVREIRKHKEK
Method: as §1

KRas G12R = KRas G12R (Homo sapiens, UniProt P01116, G12R);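 note: TR-FRET displacement assay of compound binding to KRas, read after one hour at room temperature, potency from a four-parameter fit of percent-of-control values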
Sequence of KRas G12R (P01116 1-169 isoform P01116-2 G12R): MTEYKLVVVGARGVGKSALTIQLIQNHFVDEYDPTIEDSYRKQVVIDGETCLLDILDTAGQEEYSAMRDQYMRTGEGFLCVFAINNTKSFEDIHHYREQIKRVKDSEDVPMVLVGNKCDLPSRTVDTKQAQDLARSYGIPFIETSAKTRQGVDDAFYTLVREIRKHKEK
Method: as §1

Sequence of KRas G12V (P01116 1-169 isoform P01116-2 G12V): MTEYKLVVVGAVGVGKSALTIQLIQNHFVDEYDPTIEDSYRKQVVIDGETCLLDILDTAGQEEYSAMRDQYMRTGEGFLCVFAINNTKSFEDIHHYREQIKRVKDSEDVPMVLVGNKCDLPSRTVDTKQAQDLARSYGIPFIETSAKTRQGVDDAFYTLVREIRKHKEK

O=C1CC2(CCCCN(c3nc(OCC45CCCN4CCC5)nc4c(F)c(-c5cccc6cccc(F)c56)ncc34)C2)N1 (stereo not drawn) [Example 266, 6-(8-fluoro-7-(8-fluoronaphthalen-1-yl)-2-((hexahydro-1H-pyrrolizin-7a-yl)methoxy)pyrido[4,3-d]pyrimidin-4-yl)-1,6-diazaspiro[3.6]decan-2-one]
IC50 (KRas G12V): 5.25 µM
IC50 (KRas G12D): 6.06 µM
IC50 (KRas G12R): 13.9 µM

CC1(O)CCCN(c2nc(OCC34CCCN3CCC4)nc3c(F)c(-c4cccc5ccccc45)ncc23)C1 (stereo not drawn) [Example 69, 1-(8-fluoro-2-((hexahydro-1H-pyrrolizin-7a-yl)methoxy)-7-(naphthalen-1-yl)pyrido[4,3-d]pyrimidin-4-yl)-3-methylpiperidin-3-ol]
IC50 (KRas G12V): 2.73 µM
IC50 (KRas G12D): 2.09 µM
IC50 (KRas G12R): 4.17 µM

O=C1NCCC2(CCCN(c3nc(OCC45CCCN4CCC5)nc4c(F)c(-c5cccc6cccc(F)c56)ncc34)C2)N1 (stereo not drawn) [Example 72, 8-(8-fluoro-7-(8-fluoronaphthalen-1-yl)-2-((tetrahydro-1H-pyrrolizin-7a(5H)-yl)methoxy)pyrido[4,3-d]pyrimidin-4-yl)-1,3,8-triazaspiro[5.5]undecan-2-one]
IC50 (KRas G12V): 10.8 µM
IC50 (KRas G12D): 14 µM
IC50 (KRas G12R): 14 µM

CCc1c(F)ccc2cc(O)cc(-c3ncc4c(NCCC5CCNC5=O)nc(OC[C@@]56CCCN5C[C@H](F)C6)nc4c3F)c12 (stereo partly drawn) [Example 375, 3-(2-((7-(8-ethyl-7-fluoro-3-hydroxynaphthalen-1-yl)-8-fluoro-2-(((2R,7aS)-2-fluorohexahydro-1H-pyrrolizin-7a-yl)methoxy)pyrido[4,3-d]pyrimidin-4-yl)amino)ethyl)pyrrolidin-2-one]
IC50 (KRas G12V): 0.008 µM
IC50 (KRas G12D): 0.044 µM
IC50 (KRas G12R): 0.009 µM

CN(CCC(N)=O)c1nc(OCC23CCCN2CCC3)nc2c(F)c(-c3cccc4cccc(F)c34)ncc12 [Example 226, 3-((8-fluoro-7-(8-fluoronaphthalen-1-yl)-2-((hexahydro-1H-pyrrolizin-7a-yl)methoxy)pyrido[4,3-d]pyrimidin-4-yl)(methyl)amino)propanamide]
IC50 (KRas G12V): 14.1 µM
IC50 (KRas G12D): 6.07 µM
IC50 (KRas G12R): 51.9 µM

Cc1cc2sc(N)nc2c(-c2ncc3c(N4CCCC(C)(O)C4)nc(OCC45CCCN4CCC5)nc3c2F)c1C (stereo not drawn) [Example 40, 1-(7-(2-amino-5,6-dimethylbenzo[d]thiazol-4-yl)-8-fluoro-2-((hexahydro-1H-pyrrolizin-7a-yl)methoxy)pyrido[4,3-d]pyrimidin-4-yl)-3-methylpiperidin-3-ol]
IC50 (KRas G12V): 66.3 µM
IC50 (KRas G12D): 55 µM
IC50 (KRas G12R): 76.9 µM

O=S1(=O)CCC(Nc2nc(OCC34CCCN3CCC4)nc3c(F)c(-c4cccc5cccc(F)c45)ncc23)C1 (stereo not drawn) [Example 279, 3-((8-fluoro-7-(8-fluoronaphthalen-1-yl)-2-((hexahydro-1H-pyrrolizin-7a-yl)methoxy)pyrido[4,3-d]pyrimidin-4-yl)amino)tetrahydrothiophene 1,1-dioxide]
IC50 (KRas G12V): 3.39 µM
IC50 (KRas G12D): 34.3 µM
IC50 (KRas G12R): 3.62 µM

Fc1c(-c2cccc3cccc(F)c23)ncc2c(N3CCCSCC3)nc(OCC34CCCN3CCC4)nc12 [Example 43, 4-(8-fluoro-7-(8-fluoronaphthalen-1-yl)-2-((hexahydro-1H-pyrrolizin-7a-yl)methoxy)pyrido[4,3-d]pyrimidin-4-yl)-1,4-thiazepane]
IC50 (KRas G12V): 1.3 µM
IC50 (KRas G12D): 3.78 µM
IC50 (KRas G12R): 2.27 µM

CN(Cc1cccnc1N)c1nc(OCC23CCCN2CCC3)nc2c(F)c(-c3cccc4cccc(F)c34)ncc12 [Example 79, N-((2-aminopyridin-3-yl)methyl)-8-fluoro-7-(8-fluoronaphthalen-1-yl)-N-methyl-2-((tetrahydro-1H-pyrrolizin-7a(5H)-yl)methoxy)pyrido[4,3-d]pyrimidin-4-amine]
IC50 (KRas G12V): 0.539 µM
IC50 (KRas G12D): 15.5 µM
IC50 (KRas G12R): 0.65 µM

CC1(C)CCCN(c2nc(OCC34CCCN3CCC4)nc3c(F)c(-c4cccc5cccc(F)c45)ncc23)C1 [Example 53, 4-(3,3-dimethylpiperidin-1-yl)-8-fluoro-7-(8-fluoronaphthalen-1-yl)-2-((hexahydro-1H-pyrrolizin-7a-yl)methoxy)pyrido[4,3-d]pyrimidine]
IC50 (KRas G12V): 49.4 µM
IC50 (KRas G12D): 66.4 µM
IC50 (KRas G12R): 90.2 µM

Fc1c(-c2cccc3cccc(F)c23)ncc2c(N3CCCCCCC3)nc(OCC34CCCN3CCC4)nc12 [Example 41, 4-(azocan-1-yl)-8-fluoro-7-(8-fluoronaphthalen-1-yl)-2-((hexahydro-1H-pyrrolizin-7a-yl)methoxy)pyrido[4,3-d]pyrimidine]
IC50 (KRas G12V): 3.41 µM
IC50 (KRas G12D): 6.48 µM
IC50 (KRas G12R): 6.39 µM

Fc1c(-c2cccc3cccc(F)c23)ncc2c(N3CCCc4ncccc4C3)nc(OCC34CCCN3CCC4)nc12 [Example 246, 6-(8-fluoro-7-(8-fluoronaphthalen-1-yl)-2-((hexahydro-1H-pyrrolizin-7a-yl)methoxy)pyrido[4,3-d]pyrimidin-4-yl)-6,7,8,9-tetrahydro-5H-pyrido[3,2-c]azepine]
IC50 (KRas G12V): 22.1 µM
IC50 (KRas G12D): 6.41 µM
IC50 (KRas G12R): 11.3 µM

CCc1c(F)ccc2cc(O)cc(-c3ncc4c(N5CCN6C(C5)C(=O)NC6(C)C)nc(OC[C@@]56CCCN5C[C@H](F)C6)nc4c3F)c12 (stereo partly drawn) [Example 489, 7-(7-(8-ethyl-7-fluoro-3-hydroxynaphthalen-1-yl)-8-fluoro-2-(((2R,7aS)-2-fluorohexahydro-1H-pyrrolizin-7a-yl)methoxy)pyrido[4,3-d]pyrimidin-4-yl)-3,3-dimethylhexahydroimidazo[1,5-a]pyrazin-1(5H)-one]
IC50 (KRas G12V): 0.151 µM
IC50 (KRas G12D): 0.221 µM
IC50 (KRas G12R): 0.31 µM

CC1(O)CCCN(c2nc(OCC34CCCN3CCC4)nc3c(F)c(-c4cccc5cccc(Cl)c45)ncc23)C1 (stereo not drawn) [Example 1, 1-(7-(8-chloronaphthalen-1-yl)-8-fluoro-2-((hexahydro-1H-pyrrolizin-7a-yl)methoxy)pyrido[4,3-d]pyrimidin-4-yl)-3-methylpiperidin-3-ol]
IC50 (KRas G12V): 0.565 µM
IC50 (KRas G12D): 0.33 µM
IC50 (KRas G12R): 0.866 µM

CCc1c(F)ccc2cc(O)cc(-c3ncc4c(N5CCC[C@](C)(O)C5)nc(OC[C@@H]5C[C@@H](OC(=O)NC)CN5C)nc4c3F)c12 [Example 9, [(3R,5S)-5-[[7-(8-ethyl-7-fluoro-3-hydroxy-1-naphthyl)-8-fluoro-4-[(3S)-3-hydroxy-3-methyl-1-piperidyl]pyrido[4,3-d]pyrimidin-2-yl]oxymethyl]-1-methyl-pyrrolidin-3-yl] N-methylcarbamate]
IC50 (KRas G12V): 0.333 µM
IC50 (KRas G12D): 0.456 µM
IC50 (KRas G12R): 0.354 µM

Fc1c(-c2cccc3cccc(F)c23)ncc2c(N3CCSCC3)nc(OCC34CCCN3CCC4)nc12 [Example 50, 4-(8-fluoro-7-(8-fluoronaphthalen-1-yl)-2-((hexahydro-1H-pyrrolizin-7a-yl)methoxy)pyrido[4,3-d]pyrimidin-4-yl)thiomorpholine]
IC50 (KRas G12V): 22.6 µM
IC50 (KRas G12D): 39 µM
IC50 (KRas G12R): 22.7 µM

CC1(O)CCCN(c2nc(OCC34CCCN3CCC4)nc3c(F)c(-c4cccc5cccc(C#N)c45)ncc23)C1 (stereo not drawn) [Example 56, 8-(8-fluoro-2-((hexahydro-1H-pyrrolizin-7a-yl)methoxy)-4-(3-hydroxy-3-methylpiperidin-1-yl)pyrido[4,3-d]pyrimidin-7-yl)-1-naphthonitrile]
IC50 (KRas G12V): 3.76 µM
IC50 (KRas G12D): 2.61 µM
IC50 (KRas G12R): 8.34 µM
